Experimental data reported in a melting point compilation (Tetko et al.; mined from patent text by program, amines drawn as free bases though some values may be those of a salt).

Structure (SMILES) | melting point
CC(=O)Nc1ccc2oc(-c3ccc(OCc4ccccc4)c(OCc4ccccc4)c3)c(O)c(=O)c2c1 | 229 to 230 °C
CCOc1c(/C=C\CO)cc(C(C)(C)C)cc1C(C)(C)C | 93 to 94 °C
OC(c1ccccc1)(c1ccc(F)cc1)C1CCNCC1 (stereo not drawn) | 144 to 146 °C
Cc1nc(O)nc(C)c1N1CCCn2c1nc1c(Cl)ccc(C(OC(F)F)C(F)(F)F)c12 (stereo not drawn) | 208 to 210 °C
CCCCCc1c(C)nc(C)c(CO)c1-c1ccccc1 | 99 to 100 °C
CC(C)(C)c1ccc(C(=O)CCCCCc2ccccc2)cc1NC(=O)CC1c2ccccc2Oc2ccccc21 | 119 to 120 °C
CNC(=O)[C@@H](C[C@H](O)[C@H](CC1CCCCC1)NC(=O)[C@H](Cc1cscn1)NC(=O)[C@@H](CC(=O)N1CCOCC1)Cc1ccc(OC)cc1)C(C)C | 128 to 130 °C
Clc1ccc2[nH]c(=Nc3ccccc3)n3nc(-c4ccco4)nc3c2c1 | 231 to 233 °C
COC(=O)c1sccc1COC(C)=O | 42 to 43 °C
O=C(O)CSc1c(C(=O)O)[nH]c2cc(Cl)cc(Cl)c12 | 152 to 153 °C
Nc1ccc(-c2cn(C3CCN(Cc4ccccc4)CC3)c3ncnc(N)c23)cc1F | 141 to 142 °C
Cc1cc(N2C(=O)NC(C)(C)C2=O)ccc1[N+](=O)[O-] | 177 to 178 °C
Clc1ccc(C2(Cn3cncn3)OCOC2c2ccc(Cl)cc2Cl)cc1 (stereo not drawn) | 201 to 203 °C
O=C1CCC(CCN2CC=C(c3ccccc3)CC2)CC1 | 94 to 96 °C
c1ccc(-c2csc3ncnc(NCc4ccco4)c23)cc1 | 77 to 79 °C
CC(C)n1nc(-c2sc(NCc3ccco3)nc2-c2ccccc2)ccc1=O | 115 to 116 °C
COc1ccc(N2CCN(CC[C@H]3CC[C@H](NC(=O)N(C)C)CC3)CC2)c(Cl)c1Cl | 196 to 198 °C
O=C(Cc1cc(OC(=O)c2ccccc2)no1)OC(c1ccccc1)c1ccccc1 | 95 to 96 °C
COC(CCl)NC(=O)c1ccccc1 (stereo not drawn) | 76.9 to 77.7 °C
CCC(CC)Nc1cc(C)nc(Nc2c(C)cc(C)cc2C)c1CC(C(=O)OC)C(=O)OC | 136 to 138 °C
O=C(C(=Cc1ccc([N+](=O)[O-])cc1)c1ccccc1)c1ccc(O)cc1 | 153 to 157 °C
COc1ccc(Cl)cc1Cn1nc(-c2ccc(C(F)(F)F)cc2)oc1=O | 144 to 145 °C

Structure (SMILES) | melting point
N#CNC(=Nc1ccncc1)NCCCCOc1ccccc1 | 131 °C
CCCCC(C)c1ccc(C=Cc2cc3cc4ccccc4cc3s2)cc1 (stereo not drawn) | 280 to 282 °C
CNC(=O)ON=C1SC(C)C(=O)N1N(C)C (stereo not drawn) | 110 to 113 °C
CCCCCCCCCCCCCCOc1cc(OCCCOc2ccc(OCc3ccccc3)cc2)cc(C(=O)OC)c1 | 69 to 70 °C
NC(=S)Nc1ccc(C(F)(F)F)cn1 | 203 to 205 °C
O=C(O)CCCc1cc2nc(C(F)(F)F)ccc2n1S(=O)(=O)c1ccccc1 | 168 °C
OCCN1CCN(c2ccccn2)CC1 | 82.5 to 84 °C
O=C(C1CCC(Nc2nccc(-n3nnc4c(-c5ccoc5)cccc43)n2)CC1)N1CCC(O)CC1 (stereo not drawn) | 243 to 244 °C
C1=C(c2cccc3[nH]ccc23)CN(CCc2ccccc2)CC1 | 205 °C
O=C(O)c1cn(C2CC2)c2c(F)c(F)c(Cl)cc2c1=O | 200 to 204 °C
OCc1cc2ccc3c4ccccc4ccc3c2o1 | 125 to 126 °C
BrCCCCCCCCCCCCN1CCN(c2ccccc2)CC1 | 26 to 28 °C
CC(=O)Nc1nc(-c2ccccc2)c(-c2ccnc(Nc3ccccc3)n2)s1 | > 260 °C
FC(F)(F)c1cc(Br)cc(OCc2ccc3ccccc3c2)c1 | 68 to 70 °C
Cc1nc(NC(=O)c2ccccc2)sc1C(=O)NCc1ccccc1C(F)(F)F | 198 to 199 °C
C[C@H]1C(=O)C[C@@H]2C[C@H]1OO[C@]2(C)/C=C\c1cc(C(F)(F)F)nc2cc(C(F)(F)F)ccc12 | 160 °C
O=C(O)CCCCC1SCc2[nH]c(=O)[nH]c21 (single isomer, unassigned; (-)) | 189 to 199 °C
Cc1ccc(S(=O)(=O)n2c(CCCC(=O)O)cc3nc(Cl)ccc32)c2ccccc12 | 199 to 204 °C
CCCc1nc(C(=O)CC)c(C)[nH]1 | 63 to 67 °C
CNC(=NO)Nc1ccccc1 | 95 to 96 °C
CS(=O)(=O)c1ccc(C2=C(c3ccccc3)C(=NOCc3ccccc3)C2)cc1 | 148 to 150 °C

Next, values leading:

melting point | Structure (SMILES)
> 300 °C | O=c1[nH]c2cc([N+](=O)[O-])c3c(c2[nH]c1=O)CN(S(=O)(=O)c1cccs1)CC3
158 to 160 °C | CC(C)N(CCN1C(=O)/C(=N/NC(N)=O)c2cc(F)ccc21)C(C)C
174 to 175 °C | CN1N=C(c2ccccc2)C(C)(Cc2ccccc2)NC1=O (stereo not drawn)
84.5 to 86 °C | CCOC(=O)C(=NOC)c1csc2cc(F)ccc12
216 to 226 °C | Cc1nc(O)c(-c2ccc(S(C)(=O)=O)cc2)s1
110 to 112 °C | O=C(O)CS(=O)(=O)Nc1ccc(F)cc1F
136 to 137 °C | CNCCOc1ccc(NC(=O)c2ccc(N3CCNCC3)cc2)c(C)c1
210 to 215 °C | COc1cc(C)nc(NC(=O)NS(=O)(=O)c2ccccc2N)n1
251 to 255 °C | COc1ccc(CC2SC(=O)NC2=O)c2c1N(CC(=O)O)C(=O)CC2 (stereo not drawn)
130 to 131 °C | CC(C)(C)c1nc(-c2ccc(F)cc2)c(-c2ccc(S(C)(=O)=O)cc2)o1
156 to 157 °C | O=C(Oc1ccccc1)c1cc2cccc(O)c2[nH]1
153 to 154 °C | CNc1cc(N2CCCNCC2)ccc1S(=O)(=O)c1cccc(F)c1
119 to 122 °C | O=S1CCc2nn(-c3ccc(Cl)cc3F)c(Cl)c2C1 (stereo not drawn)
58 to 59 °C | COc1ccc2nc(OC)cc(C)c2c1
192 °C | CC(=O)NCCc1c(-c2ccccc2)oc2ccc3c(c12)OCCO3
66 to 68 °C | CC(=O)N1CCN(N)c2ccccc2C1
123 °C | CCOc1ccc(Cc2cc([C@@H]3O[C@H](SC)[C@@H](O)[C@H](O)[C@H]3O)ccc2Cl)cc1
226 to 229 °C | O=Cc1cc2cc(F)c(F)cc2nc1Cl
75 to 77 °C | COC(=O)c1ccc(SCc2cccc(Cl)c2)cn1
156 to 158 °C | N#Cc1ccc2oc(C(=O)CBr)cc2c1
144 to 145 °C | COc1ccc(C2(O)OC(=O)C(c3cc(OC)c4c(c3)OCO4)=C2CC2CCCC2)cc1C (stereo not drawn)
69 to 71 °C | CCOC(=O)CON(CC)C(=S)Nc1ccc(Cl)cc1C
174 to 178 °C | CCOCOC(=O)c1c(I)cc(I)c(NC(C)=O)c1I
63 to 64 °C | CC(=O)C(=Cc1cccc(C#N)c1)C(C)=O
152 to 154 °C | COc1ccc2ccn3c(C(F)(F)F)nnc3c2c1
> 300 °C | Cn1cnc2c3cccnc3n(-c3ccccc3)c(=O)c21
242 to 243 °C | Cc1cccc(C)c1NC(=O)N1CC(C)(C)NC1=S
74 to 78 °C | COC1=NS(=O)(=O)N(C)C(OCCCCc2ccccc2)=N1
105 to 107 °C | C#Cc1ccc2c(c1)C(C)(C)CCS2=O (stereo not drawn)
224 °C | CCOC(=O)c1cn(C)c2nc3cc(N4CC(N(C)C)C4)c(F)cc3cc2c1=O
